We go through one compound from publication PMC8230315, “A Pan-Inhibitor for Protein Arginine Methyltransferase Family Enzymes” (Biomolecules, 2021).

In the assay the target is PRMT1 (Homo sapiens, UniProt Q99873). Put plainly: SAHH-coupled fluorescence assay, PRMT1 inhibition. Type of assay: biochemical. As for the experimental part: A fluorescence-based SAHH-coupled assay was used to evaluate the IC50 values of inhibitors by monitoring the production of SAH from SAM after methylation. […] The fluorescence signal was monitored on a BMG CLARIOstar microplate reader with excitation at 400 nm and emission at 465 nm for 18 min. Data were processed using GraphPad Prism software 7.0. All experiments were performed in duplicate.
The fluorescence signal was monitored on a BMG CLARIOstar microplate reader with excitation at 400 nm and emission at 465 nm for 18 min. Data were processed using GraphPad Prism software 7.0. All experiments were performed in duplicate. […].

Like-named read-outs stand apart in the source and are kept apart here.

PRMT1, sequence (Q99873 whole entry, species assumed): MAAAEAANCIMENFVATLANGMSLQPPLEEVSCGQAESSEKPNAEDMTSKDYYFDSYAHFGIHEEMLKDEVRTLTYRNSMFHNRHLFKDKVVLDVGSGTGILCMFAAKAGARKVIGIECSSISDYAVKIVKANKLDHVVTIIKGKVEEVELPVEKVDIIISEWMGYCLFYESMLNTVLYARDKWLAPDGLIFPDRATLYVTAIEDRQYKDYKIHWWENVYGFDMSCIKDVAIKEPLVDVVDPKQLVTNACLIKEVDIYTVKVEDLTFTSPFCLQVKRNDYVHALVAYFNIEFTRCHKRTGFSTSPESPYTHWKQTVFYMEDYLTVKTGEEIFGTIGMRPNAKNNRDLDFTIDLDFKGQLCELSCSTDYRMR

The compound `N=C(NCCCSC[C@H]1O[C@@H](n2cnc3c(N)ncnc32)[C@H](O)[C@@H]1O)Nc1cccc(Br)c1` [Compound 6l, 1-(3-((((2S,3S,4R,5R)-5-(6-amino-9H-purin-9-yl)-3,4-dihydroxytetrahydrofuran-2-yl)methyl)thio)propyl)-3-(3-bromophenyl)guanidine] came in with an IC50 (PRMT1 0.1 µM, substrate concentration at 4 Km (footnote a), n = 2, mean ± SD) of 90 ± 40 nM. For the same compound, the Ki was around 18 nM (SAHH-coupled assay, PRMT1, read-out: apparent Ki) and 18 ± 8 nM (calculated as Ki, app = IC50/(1 + [S]/Km), read-out: Ki, app).
